Experimental data as given in patent US6579881B2 (Eisai Co., Ltd., priority 1997, dated 2003).
Structures can show the parent of a compound that is named as a salt.

Assays:
[1] = biological target: T1, serotonin 1A receptor (Rattus norvegicus, UniProt P19327); test: Binding test on [3H] 8-hydroxy-dipropylaminotetralin (serotonin 1A receptor); settings: [3H] 8-OH-DPAT 0.5 nM, receptor fraction of rat hippocampus; read-out: 5HT1a
T1 construct: To the receptor fraction of the hippocampus were added a test compound and 0.5 nM of [^3H]; 8-hydroxy-dipropylaminotetralin; from tissue; host or cells: SD rat hippocampus, membrane (receptor) fraction
T1 sequence (P19327 1-422): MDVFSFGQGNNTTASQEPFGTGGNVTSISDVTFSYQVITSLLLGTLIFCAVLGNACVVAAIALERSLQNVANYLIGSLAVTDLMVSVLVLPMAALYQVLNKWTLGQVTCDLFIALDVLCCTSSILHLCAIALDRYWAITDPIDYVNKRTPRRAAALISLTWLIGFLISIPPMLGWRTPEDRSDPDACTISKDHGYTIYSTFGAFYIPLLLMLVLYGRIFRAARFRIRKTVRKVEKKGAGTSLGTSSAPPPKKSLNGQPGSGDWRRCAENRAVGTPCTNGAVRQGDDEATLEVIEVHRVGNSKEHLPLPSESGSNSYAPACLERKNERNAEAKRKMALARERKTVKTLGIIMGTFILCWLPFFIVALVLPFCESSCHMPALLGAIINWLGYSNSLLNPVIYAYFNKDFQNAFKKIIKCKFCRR

[2] = biological target: serotonin 2 receptor (Rattus norvegicus, UniProt P14842); test: Binding test on [3H] ketanserin (serotonin 2 receptor); settings: [3H] ketanserin 0.3 nM, receptor fraction of rat cerebral cortex; read-out: 5HT2
Chain of serotonin 2 receptor (P14842 whole entry): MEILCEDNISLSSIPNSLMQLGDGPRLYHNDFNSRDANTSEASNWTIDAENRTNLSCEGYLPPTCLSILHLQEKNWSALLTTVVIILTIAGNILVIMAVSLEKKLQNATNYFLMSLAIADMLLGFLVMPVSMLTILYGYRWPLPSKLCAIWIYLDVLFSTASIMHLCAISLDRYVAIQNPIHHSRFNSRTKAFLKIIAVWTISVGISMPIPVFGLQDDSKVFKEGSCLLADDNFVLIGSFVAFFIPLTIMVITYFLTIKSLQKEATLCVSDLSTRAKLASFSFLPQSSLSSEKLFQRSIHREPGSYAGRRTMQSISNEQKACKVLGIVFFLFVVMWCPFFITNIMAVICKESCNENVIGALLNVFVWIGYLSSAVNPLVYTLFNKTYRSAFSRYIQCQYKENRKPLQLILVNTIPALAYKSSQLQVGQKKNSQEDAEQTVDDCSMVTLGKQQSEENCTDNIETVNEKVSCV

Row | SMILES | Ki [1] [nM] | Ki [2] [nM]
1 | COc1ccc(CCN2CCC(N3CCc4ccccc43)CC2)cn1 [Example 52, 1-{1-[2-(2-methoxy-5-pyridyl)ethyl]piperidin-4-yl}indoline] | 2.5 | 5.6
2 | COc1ccc(CC(C)N2CCC(N3CCc4ccccc43)CC2)cc1OC (centres unmarked) [Example 76, 1-{1-[1-(3,4-dimethoxyphenyl)propan-2-yl]piperidin-4-yl}indoline] | 43.2 | > 200
3 | COc1ccc(CCN2CCC(C3CCc4ccccc43)CC2)cc1 (centres unmarked) [Example 249, 1-[1-(4-methoxyphenethyl)piperidin-4-yl]indan] | 2.1 | 20.2
4 | CCN1CCC(N2CC(Cc3ccc(OC)cc3)c3ccccc32)CC1 (centres unmarked) [Example 242, 1-(1-ethylpiperidin-4-yl)-3-(4-methoxybenzyl)indoline] | > 200 | 2.3
5 | Fc1ccc(N2CCC(N3CCc4ccccc43)CC2)cc1 [Example 1, 1-[1-(4-fluorophenyl)piperidin-4-yl]indoline] | 624 | > 200
6 | CCN1CCC(N2CC(Cc3cccnc3)c3ccccc32)CC1 (centres unmarked) [Example 245, 1-(1-ethylpiperidin-4-yl)-3-(3-pyridylmethyl)indoline] | > 200 | 11.2
7 | Cc1ncsc1CCN1CCC(N2CCc3ccccc32)CC1 [Example 61, 1-[1-(4-methyl-5-thiazolethyl)piperidin-4-yl]indoline] | 5 | 12.5
8 | COc1ccc(CCN2CCC(N3CCc4ccccc43)CC2)s1 [Example 64] | 14.8 | 14.2
9 | CN(C)CCOc1ccc(CCN2CCC(N3CCc4ccccc43)CC2)cc1 [Example 44, 1-{1-[4-(2-dimethylaminoethoxy)phenethyl]piperidin-4-yl}indoline] | 4 | 43.7
10 | OC(CCCN1CCC(N2CCc3ccccc32)CC1)c1ccc(F)cc1 (centres unmarked) [Example 73, 1-{1-[4-(4-fluorophenyl)-4-hydroxybutyl]piperidin-4-yl}indoline] | 34.9 | 7.2
11 | CC1CC(=C2CCN(CCc3ccc(F)cc3)CC2)c2nccnc21 (centres unmarked) [Example 265, 5-[1-(4-fluorophenethyl)piperidin-4-ylidene]-7-methyl-5,6-dihydrocyclopentapyrazine] | 25.2 | 34.2
12 | c1csc(CCN2CCC(N3CCc4ccccc43)CC2)c1 [Example 58, 1-{1-[2-(2-thienyl)ethyl]piperidin-4-yl}indoline] | 26.2 | 34.8
13 | CS(=O)(=O)NCc1ccc2c(c1)N(C1CCN(CCc3ccc(F)cc3)CC1)CC2 [Example 160, 1-[1-(4-fluorophenethyl)piperidin-4-yl]-6-methylsulfonylaminomethylindoline] | 3.86 | 8
14 | COc1ccc2c(c1)C(N1CCN(CCc3ccc(F)cc3)CC1)CCCC2 (centres unmarked) [Example 282, 1-(4-fluorophenethyl)-4-(2-methoxybenzocycloheptan-9-yl)piperazine] | 58.7 | 150
15 | Fc1ccc(CCN2CCC(N3CCc4ccc(Cl)nc43)CC2)c(F)c1 [Example 262, 1-[1-(2,4-difluorophenethyl)piperidin-4-yl]-6-chloro-7-azaindoline] | 1.5 | 2.1
16 | N#Cc1ncc(CCN2CCC(N3CCc4ccccc43)CC2)s1 [Example 66] | 50.9 | 85
17 | c1ccc2c(c1)CCN2C1CCN(CCc2nccs2)CC1 [Example 60, 1-[1-(2-thiazolylethyl)piperidin-4-yl]indoline] | 60.8 | > 200
18 | COc1ccc2c(c1)C(N1CCN(CC(=O)c3ccc(F)cc3)CC1)CCC2 (centres unmarked) [Example 281, 1-{4-[2-(4-fluorophenyl)-2-oxoethyl]piperazin-1-yl}-7-methoxy-1,2,3,4-tetrahydronaphthalene Hydrochloride] | 35.2 | 11.2

Results, then the compound that gave them:

Row | Ki [1] [nM] | Ki [2] [nM] | SMILES
19 | 47.5 | 16.3 | CN1CCC(Cc2ccc3c(c2)N(C2CCN(CCc4ccc(F)cc4)CC2)CC3)CC1 [Example 170, 1-[1-(4-fluorophenethyl)piperidin-4-yl]-6-[(1-methylpiperidin-4-yl)methyl]indoline]
20 | 25.9 | 21.1 | O=C(CCCN1CCC(N2CCc3ccccc32)CC1)c1ccc(F)cc1 [Example 72, 1-{1-[4-(4-fluorophenyl)-4-oxobutyl]piperidin-4-yl}indoline]
21 | 1030 | 9.62 | CC(O)(c1ccc2c(c1)N(C1CCN(CCc3ccc(F)cc3)CC1)CC2)c1ccccn1 (centres unmarked) [Example 181, 1-[1-(4-fluorophenethyl)piperidin-4-yl]-6-[1-hydroxy-1-(2-pyridyl)ethyl]indoline]
22 | 37.6 | 48.2 | CC(=O)NCc1ccc2c(c1)N(C1CCN(CCCOc3ccc(F)cc3)CC1)CC2 [Example 232, 1-[1-(4-fluorophenoxypropyl)piperidin-4-yl]-6-acetamidomethylindoline]
23 | 1.49 | 3.38 | CC(F)c1ccc2c(c1)N(C1CCN(CCc3ccc(F)cc3)CC1)CC2 (centres unmarked) [Example 144, 1-[1-(4-fluorophenethyl)piperidin-4-yl]-6-(1-fluoroethyl)indoline]
24 | 1.6 | 8.9 | CCC(=O)NCc1ccc(CCN2CCC(N3CCc4ccccc43)CC2)cc1 [Example 39]
25 | 3.23 | 0.43 | NC(=O)NCc1ccc2c(c1)N(C1CCN(CCc3ccc(F)cc3)CC1)CC2 [Example 161, 1-[1-(4-fluorophenethyl)piperidin-4-yl]-6-ureidomethylindoline]
26 | 109 | 13.9 | Fc1ccc(CCN2CCC(CN3CCc4ccccc43)CC2)cc1 [Example 16, 1-[1-(4-fluorophenethyl)piperidin-4-yl]methylindoline]
27 | 0.49 | 0.33 | O=c1ccc(C(O)c2ccc3c(c2)N(C2CCN(CCc4ccc(F)cc4)CC2)CC3)c[nH]1 (centres unmarked) [Example 190, 1-[1-(4-fluorophenethyl)piperidin-4-yl]-6-[1-hydroxy-1-(2-pyridon-5-yl)methyl]indoline]
28 | 0.49 | 9.12 | O=Cc1ccc2c(c1)N(C1CCN(CCc3ccc(F)cc3)CC1)CC2 [Example 130, 1-[1-(4-fluorophenethyl)piperidin-4-yl]-6-formylindoline]
29 | 1.18 | 3.86 | O=C(c1cccnc1)c1ccc2c(c1)N(C1CCN(CCc3ccc(F)cc3)CC1)CC2 [Example 183, 1-[1-(4-fluorophenethyl)piperidin-4-yl]-6-(3-pyridylcarbonyl)indoline]
30 | 7.8 | 2.6 | CCC(=O)NCc1ccc2c(c1)N(C1CCN(CCc3ccc(F)cc3)CC1)CC2 [Example 156, 1-[1-(4-fluorophenethyl)piperidin-4-yl]-6-propionylaminomethylindoline]
31 | 1.98 | 1.19 | OC(c1ccc2c(c1)N(C1CCN(CCc3ccc(F)cc3)CC1)CC2)c1ccc[nH]1 (centres unmarked) [Example 199, 1-[1-(4-fluorophenethyl)piperidin-4-yl]-6-[1-hydroxy-1-(2-pyrrolyl)methyl]indoline]
32 | 19 | 16.4 | Fc1ccc(CCN2CCC(CCN3CCc4ccccc43)CC2)cc1 [Example 17, 1-{2-[1-(4-fluorophenethyl)piperidin-4-yl]ethyl}indoline]
33 | 6.92 | 2.88 | OC(c1ccc2c(c1)N(C1CCN(CCc3ccc(F)cc3)CC1)CC2)c1nccs1 (centres unmarked) [Example 193, 1-[1-(4-fluorophenethyl)piperidin-4-yl]-6-[1-(2-thiazolyl)-1-hydroxymethyl]indoline]
34 | 5.7 | 24.3 | CCNc1ccc(CCN2CCC(N3CCc4ccccc43)CC2)cc1 [Example 33, 1-[1-(4-ethylaminophenethyl)piperidin-4-yl]indoline]
35 | 4.11 | 0.18 | CCCC(=O)NCc1ccc2c(c1)N(C1CCN(CCc3ccc(F)cc3)CC1)CC2 [Example 157, 1-[1-(4-fluorophenethyl)piperidin-4-yl]-6-(n-butyryl)aminomethylindoline]
36 | 0.55 | 4.61 | O=C1CCCCN1Cc1ccc2c(c1)N(C1CCN(CCc3ccc(F)cc3)CC1)CC2 [Example 203, 1-[1-(4-fluorophenethyl)piperidin-4-yl]-6-(2-piperidon-1-yl)methylindole]
37 | 6.98 | 4.72 | O=C1CSC(=O)N1Cc1ccc2c(c1)N(C1CCN(CCc3ccc(F)cc3)CC1)CC2 [Example 209, 1-[1-(4-fluorophenethyl)piperidin-4-yl]-6-(2,4-thiazolidinedion-3-yl)methylindoline]
38 | 0.7 | 10.4 | CCCS(=O)(=O)Nc1ccc2c(c1)N(C1CCN(CCc3ccc(F)cc3)CC1)CC2 [Example 118, 1-[1-(4-fluorophenethyl)piperidin-4-yl]-6-propanesulfonylaminoindoline]
39 | 9.58 | 0.25 | CNC(=O)Cc1ccc2c(c1)N(C1CCN(CCc3ccc(F)cc3)CC1)CC2 [Example 148, 1-[1-(4-fluorophenethyl)piperidin-4-yl]-6-(methylcarbamoylmethyl)indoline]
40 | 13.7 | 2.21 | OC(c1cncnc1)c1ccc2c(c1)N(C1CCN(CCc3ccc(F)cc3)CC1)CC2 (centres unmarked) [Example 198, 1-[1-(4-fluorophenethyl)piperidin-4-yl]-6-[1-hydroxy-1-(pyrimidin-5-yl)methyl]indoline]
